The values below come from PubChem BioAssay (NCI).

The structures appear in SMILES notation.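 Briefly, cells in 96-well plates were exposed to five compound concentrations for 48 h, and endpoints were estimated by linear interpolation. TGI is the concentration that stops growth completely.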 Bounds are passed on as bounds.

Among the test systems are K-562 leukemia; UACC-257 melanoma; HOP-62 NSCLC; SK-MEL-2 melanoma; HS 578T breast; HCC-2998 colon; NCI/ADR-RES ovarian; CCRF-CEM leukemia; CAKI-1 renal; SN12C renal.
Test in all cases: NCI tumour cell line growth inhibition, 48 h

Turning to `COc1ccccc1C1(c2c(OC)c(=O)c2=O)SCCCS1`, the TGI in the experiment with K-562 leukemia, with UACC-257 melanoma, in the experiment on HOP-62 NSCLC, in the experiment on SK-MEL-2 melanoma, with HS 578T breast and in the experiment with HCC-2998 colon was more than 100 µM in each case. Also, the TGI with NCI/ADR-RES ovarian, in the experiment with CCRF-CEM leukemia, with CAKI-1 renal and with SN12C renal was more than 100 µM each time.
Turning to `COc1cc(OC)c2c(c1)OC(c1cccnc1)C(c1ccccc1)C2=O` (stereo unspecified), the TGI with K-562 leukemia, in the experiment with UACC-257 melanoma, in the experiment with HOP-62 NSCLC, in the experiment on SK-MEL-2 melanoma, in the experiment on HS 578T breast and with HCC-2998 colon was more than 100 µM each time. The TGI in the experiment with NCI/ADR-RES ovarian, in the experiment on CCRF-CEM leukemia, in the experiment with CAKI-1 renal and in the experiment on SN12C renal was more than 100 µM throughout.
As for `CC(C)(C)N/N=C(\C(=O)NC1=C(Cl)C(=O)c2ccccc2C1=O)C1C=CCS1(=O)=O` (stereo unspecified), the TGI in the experiment on K-562 leukemia was more than 100 µM; in the experiment on UACC-257 melanoma it was 26.5 µM; with SK-MEL-2 melanoma, 24.9 µM; in the experiment with HS 578T breast it was 64.8 µM; with HCC-2998 colon it was 57.3 µM; in the experiment with NCI/ADR-RES ovarian, 71.9 µM. Also, the results for the TGI with CCRF-CEM leukemia, with CAKI-1 renal and with SN12C renal were more than 100 µM, 45.6 µM and 31.6 µM, respectively.
For `COC(=O)c1cc(OC)c(OC)c(OC)c1-c1cc2c(cc1C=O)OCO2`, the TGI in the experiment on K-562 leukemia, with UACC-257 melanoma, in the experiment on HOP-62 NSCLC, in the experiment with SK-MEL-2 melanoma, with HS 578T breast and in the experiment with HCC-2998 colon was more than 10 µM in each case. Further, the TGI with NCI/ADR-RES ovarian, with CCRF-CEM leukemia, in the experiment with CAKI-1 renal and with SN12C renal was more than 10 µM in each case.
On to `COc1cc2c(/C=C3/C(=O)N(C)c4ccc(O)cc43)c(Cl)[nH]c2cc1C`, for which the TGI in the experiment on K-562 leukemia was 11.7 µM; with UACC-257 melanoma, 23.5 µM; in the experiment on HOP-62 NSCLC it was 3.94 µM; with SK-MEL-2 melanoma it was 17.9 µM; in the experiment with HS 578T breast, 28.9 µM; in the experiment with HCC-2998 colon, 0.85 µM. Besides, the TGI turned out to be 5.59 µM in the experiment with NCI/ADR-RES ovarian, 13.6 µM in the experiment on CAKI-1 renal and 17 µM in the experiment with SN12C renal.
On to `Cc1c2c(n(CC(c3ccccc3)c3ccccc3)c1C)NN=C(C#N)S2(=O)=O`, for which the TGI with UACC-257 melanoma, in the experiment with HOP-62 NSCLC, in the experiment with SK-MEL-2 melanoma, in the experiment with HS 578T breast, with HCC-2998 colon and with NCI/ADR-RES ovarian was more than 100 µM each time. For the same compound, the TGI in the experiment on CAKI-1 renal and in the experiment with SN12C renal was more than 100 µM each time.
As to `C#CC(O)/C=C/CCCCCCC#CC/C=C\CC#CCCCCCCCCC(O)C#C` (stereo unspecified), the TGI in the experiment on K-562 leukemia is more than 21.6 µM; with UACC-257 melanoma it was 15.1 µM; in the experiment on HOP-62 NSCLC, 12 µM; in the experiment on SK-MEL-2 melanoma it was 9.44 µM; in the experiment on HS 578T breast, 38.3 µM; in the experiment on HCC-2998 colon, 9.8 µM. Moreover, the TGI is 10.2 µM with NCI/ADR-RES ovarian, 9.08 µM with CAKI-1 renal and 4.79 µM in the experiment with SN12C renal.
`CC(C)=CC(=O)c1[nH]c2ccccc2c1CC(=O)NCCc1cncn1C`: the TGI with K-562 leukemia is more than 100 µM; in the experiment on UACC-257 melanoma, more than 100 µM; with SK-MEL-2 melanoma, more than 100 µM; with HS 578T breast it was more than 100 µM; in the experiment on HCC-2998 colon it was 81.5 µM; in the experiment with NCI/ADR-RES ovarian it was more than 100 µM. The TGI in the experiment on CCRF-CEM leukemia, with CAKI-1 renal and in the experiment on SN12C renal was more than 100 µM each time.
Consider `Br[C@@H]1[C@H]2c3nc4ccccc4nc3[C@@H]1C[C@H]2Br`, for which the TGI in the experiment with K-562 leukemia, in the experiment with UACC-257 melanoma, in the experiment with HOP-62 NSCLC, with HS 578T breast, with HCC-2998 colon and with NCI/ADR-RES ovarian was more than 100 µM throughout. Moreover, the TGI with CCRF-CEM leukemia, in the experiment with CAKI-1 renal and in the experiment with SN12C renal was more than 100 µM each time.
On to `CN(CCNC(=O)c1c[nH]c2c1Cc1ccccc1-2)CCNC(=O)c1c[nH]c2c1Cc1ccccc1-2`, for which the TGI was more than 100 µM with K-562 leukemia; more than 100 µM with UACC-257 melanoma; more than 100 µM in the experiment with HOP-62 NSCLC; 52.1 µM with SK-MEL-2 melanoma; more than 100 µM in the experiment on HS 578T breast; more than 100 µM with HCC-2998 colon. The TGI in the experiment with NCI/ADR-RES ovarian, in the experiment on CAKI-1 renal and with SN12C renal was more than 100 µM in each case.
Regarding `O=C(O)c1nc2ccc(C(F)(F)F)cc2nc1Nc1ccc(F)cc1`, the TGI in the experiment with K-562 leukemia is 43.4 µM; in the experiment with UACC-257 melanoma, 78.1 µM; in the experiment with HOP-62 NSCLC it was 34.7 µM; with SK-MEL-2 melanoma, 34.8 µM; with HS 578T breast, 96.4 µM; in the experiment with HCC-2998 colon it was 34.3 µM. Also, the TGI in the experiment with NCI/ADR-RES ovarian was determined as 84.7 µM; in the experiment on CAKI-1 renal, 78 µM; in the experiment with SN12C renal it was 85.6 µM.
Regarding `CCOC(=O)c1c(SC(=O)c2ccc(OC)cc2)n(-c2ccccc2)c(=S)n(-c2ccccc2)c1=O`, the TGI in the experiment with K-562 leukemia, in the experiment with UACC-257 melanoma, with HOP-62 NSCLC, in the experiment on HS 578T breast, with HCC-2998 colon and in the experiment with NCI/ADR-RES ovarian was more than 100 µM in each case. The TGI with CCRF-CEM leukemia, with CAKI-1 renal and with SN12C renal was more than 100 µM throughout.
With `Cc1ccc2c(c1)nc1n2C(N)=Nc2ccccc2S1`, the TGI in the experiment on K-562 leukemia, in the experiment with UACC-257 melanoma, in the experiment on HOP-62 NSCLC, with SK-MEL-2 melanoma, with HS 578T breast and in the experiment with HCC-2998 colon was more than 100 µM each time. The TGI with NCI/ADR-RES ovarian, in the experiment on CAKI-1 renal and in the experiment on SN12C renal was more than 100 µM each time.
`COc1cc2c(cc1OC)C(=O)/C(=C/c1cc(C)cc(C)c1)C2`: the TGI in the experiment on K-562 leukemia is more than 38 µM; in the experiment on UACC-257 melanoma it was more than 100 µM; in the experiment with HOP-62 NSCLC it was more than 61.2 µM; in the experiment with SK-MEL-2 melanoma, 44.4 µM; in the experiment with HS 578T breast, more than 100 µM; in the experiment with HCC-2998 colon, 2.14 µM. The TGI in the experiment on NCI/ADR-RES ovarian is more than 38 µM; in the experiment on SN12C renal, 32.6 µM.
For the compound `CCCCOC(=O)C1CC[C@H]2[C@@H]3CCc4cc(OC(=O)c5cccc6c(=O)c7ccccc7[nH]c56)ccc4[C@H]3CC[C@]12C` (stereo partly specified), the TGI was determined as 21.4 µM in the experiment on K-562 leukemia; 15.3 µM in the experiment on UACC-257 melanoma; 16.4 µM in the experiment with HOP-62 NSCLC; 18.5 µM in the experiment with SK-MEL-2 melanoma; 39.7 µM in the experiment with HS 578T breast; 15.8 µM in the experiment on HCC-2998 colon. Also, the TGI in the experiment with NCI/ADR-RES ovarian worked out at 24.3 µM; in the experiment with CAKI-1 renal, 13.7 µM; in the experiment with SN12C renal, 15.3 µM.
